What was measured:
Assay type in all cases: cell-based
PPARγ = target: T1, PPARγ (Homo sapiens, UniProt P37231); assay: aP2 Assay for PPAR Gamma Agonists (bDNA aP2 mRNA, preadipocytes); conditions: fold induction, unbracketed values; PPARγ standard FI = 70.3
T1 construct: Following the challenge of the preadipocytes, cells may be lysed with lysis buffer; endogenous in cells; host or cells: preadipocytes
T1 sequence (P37231 1-505): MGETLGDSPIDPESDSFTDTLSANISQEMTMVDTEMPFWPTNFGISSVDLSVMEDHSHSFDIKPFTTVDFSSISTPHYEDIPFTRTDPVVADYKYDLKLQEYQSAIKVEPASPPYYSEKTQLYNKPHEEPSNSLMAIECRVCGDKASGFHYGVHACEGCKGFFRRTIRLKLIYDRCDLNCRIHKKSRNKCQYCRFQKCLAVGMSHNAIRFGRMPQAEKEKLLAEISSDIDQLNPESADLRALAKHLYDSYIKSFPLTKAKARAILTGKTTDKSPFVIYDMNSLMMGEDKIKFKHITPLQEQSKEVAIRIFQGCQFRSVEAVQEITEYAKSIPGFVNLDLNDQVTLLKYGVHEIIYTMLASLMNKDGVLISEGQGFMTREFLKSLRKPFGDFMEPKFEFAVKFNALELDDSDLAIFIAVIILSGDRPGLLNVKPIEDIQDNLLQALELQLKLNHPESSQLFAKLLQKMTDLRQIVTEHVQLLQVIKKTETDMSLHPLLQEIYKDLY
Description: aP2 Assay for PPAR Gamma Agonists
The procedure is described in detail in Burris et al., Molecular Endocrinology 1999, 13:410, which is hereby incorporated by reference in its entirety, and aP2 assay results of agonist intrinsic activity may be presented as fold increase over vehicle in induction of aP2 mRNA production.
Twenty-four hours after the initial seeding of the 96-well plates by hand (around 20,000/well), the differentiation assay may be initiated. Medium may be removed and replaced with 150 μl of differentiation medium containing vehicle (DMSO) or test compounds. Cells may be returned to incubator for 24 hours culture. At the termination of the challenge, medium may be removed and 100 ul of lysis buffer may be added to initiate the bDNA aP2 mRNA assay. The branched DNA assay may be performed according to the manufacturer's protocol (Bayer Diagnostics; Emeryville, Calif.). Result may be expressed as the fold increase of aP2 mRNA production activated over vehicle controls. EC50's and Emax may be determined by non-linear regression with a sigmoidal fit curve.
Following the challenge of the preadipocytes, cells may be lysed with lysis buffer (Bayer Diagnostics) containing the aP2 oligonucleotides. After a 15 minute incubation at 53° C. or 30 minutes at 37° C. incubator, 70 ul of the lysis buffer from each well may be added to a corresponding capture well (preincubated with 70 ul of blocking buffer (Bayer Diagnostics)). The capture plate may be incubated overnight at 53° C. in a plate incubator (Bayer Diagnostics). After this incubation, the bDNA and labeled probes may be annealed as directed by the manufacturer. Following a 30-minute incubation with the luminescent alkaline phosphatase substrate, dioxitane, the luminescence may be quantitated in a Dynex MLX microtiter plate luminometer. Oligonucleotide probes designed to anneal to the aP2 mRNA and function in the bDNA mRNA detection system are designed with ProbeDesigner software (Bayer Diagnostics). This software package analyzes a target sequence of interest with a series of algorithms in order to determine which regions of the sequence can perform as locations for capture, label, or spacer probe annealing. The sequences of the oligonucleotides are as follows: […]

PPARδ = target: T2, PPARδ (Homo sapiens, UniProt Q03181); assay: Transfection Assay for PPARδ Receptors (PPAR-Gal4 receptor / Gal4-Luciferase Reporter, HEK293 cells); conditions: fold induction, unbracketed values; PPARδ standard FI = 36.1
T2 sequence (Q03181 171-441 limits assumed): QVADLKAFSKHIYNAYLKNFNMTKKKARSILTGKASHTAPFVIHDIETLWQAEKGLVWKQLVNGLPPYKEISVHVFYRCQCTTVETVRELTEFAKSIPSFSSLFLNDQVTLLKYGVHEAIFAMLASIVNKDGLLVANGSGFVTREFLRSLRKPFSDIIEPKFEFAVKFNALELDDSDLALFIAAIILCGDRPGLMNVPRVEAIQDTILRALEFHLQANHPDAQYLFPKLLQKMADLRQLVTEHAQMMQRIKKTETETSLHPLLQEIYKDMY
Protocol: Transfection Assay for PPARδ Receptors
HEK293 cells were grown in DMEM/F-12 Media supplemented with 10% FBS and glutamine (GIBCOBRL). The cells were co-transfected with DNA for PPAR-Gal4 receptor and Gal4-Luciferase Reporter using the DMRIE-C Reagent. On the following day, the DNA-containing medium were replaced with 5% Charcoal treated FBS growth medium. After six hours, cells were seeded in 96 well plate and incubated at 37° C. in CO2 incubator overnight. Cells were challenged by test compounds and incubated for 24 hours at 37° C. in 5% CO2 incubator. Luciferase activity was assayed using the Steady-Glo Luciferase Assay Kit from Promega. DMRIE-C Reagent was purchased from GIBCO Cat. No. 10459-014. OPTI-MEM I Reduced Serum Medium was purchased from GIBCO Cat. No. 31985. Steady-Glo Luciferase Assay Kit was obtained from Promega Part# E254B.

PPARα = target: T3, PPARα (Rattus norvegicus, UniProt P37230); assay: HD bDNA Assay (HD gene induction, H4IIE rat hepatoma cell line); conditions: assay not named, values equal the PPARα column
T3 construct: H4IIE rat hepatoma cell line was obtained from ATCC; host or cells: H4IIE rat hepatoma cells
T3 sequence (P37230 1-468): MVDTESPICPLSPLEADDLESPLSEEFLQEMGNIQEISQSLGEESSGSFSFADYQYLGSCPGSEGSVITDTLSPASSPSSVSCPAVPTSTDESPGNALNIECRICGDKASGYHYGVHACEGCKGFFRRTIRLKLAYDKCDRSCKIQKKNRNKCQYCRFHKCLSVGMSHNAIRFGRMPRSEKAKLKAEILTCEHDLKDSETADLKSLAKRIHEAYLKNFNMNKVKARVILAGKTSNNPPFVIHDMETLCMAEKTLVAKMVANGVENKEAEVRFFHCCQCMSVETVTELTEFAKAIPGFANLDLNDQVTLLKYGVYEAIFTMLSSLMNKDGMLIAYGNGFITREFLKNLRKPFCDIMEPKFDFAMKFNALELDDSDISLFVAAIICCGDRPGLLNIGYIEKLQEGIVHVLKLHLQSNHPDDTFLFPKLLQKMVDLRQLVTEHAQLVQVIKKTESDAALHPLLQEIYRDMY
Protocol: H4IIE rat hepatoma cell line was obtained from ATCC. Cells were cultured in 175 cm^2 tissue culture flask or seeded in 96-well plate with (high serum content, 10% fetal bovine serum and 10% calf serum) culture medium and maintained at 37° C. and 5% CO2 throughout study. Twenty-four hours after the initial seeding of the 96-well plate by hand (approximate 100,000/well), the HD gene induction assay was initiated. Media was removed and replaced with 100 ul of low serum culture media (5% charcoal/dextran treated calf serum) containing vehicle (DMSO) or test compounds or standard. Cells returned to incubator for 24 hours culture. At the termination of the challenge, 50 ul lysis buffer with HD gene specific CE, LE, BL probes was added directly into each well to initiate the is bDNA HD mRNA assay. The branched DNA assay was performed according to the manufacturer's protocol (Bayer Diagnostics; Emeryville. Calif.). At the end of the assay, the luminescence was quantitated in Dynex MLX microtiter plate luminometer. EC50's were determined by non-linear regression with a sigmoidal fit utilizing Graphpad Prism.

| SMILES | PPARγ FI (PPARγ) | PPARδ FI (PPARδ) | EC50 (PPARα) [nM] |
| --- | --- | --- | --- |
| CCN(C(=O)Nc1ccc(C(C)C)cc1)C1Cc2ccc(SC(C)(C)C(=O)O)cc2C1 (centres unmarked) [Example 6, 2-{2-[1-Ethyl-3-(4-isopropylphenyl)ureido]indan-5-ylsulfanyl}-2-methylpropionic acid] | 1.9 | 3.6 |  |
| CCCN(C(=O)Nc1ccc(OC(F)(F)F)cc1)C1Cc2ccc(SC(C)(C)C(=O)O)cc2C1 (centres unmarked) [Example 16, 2-Methyl-2-{2-[1-propyl-3-(4-trifluoromethoxyphenyl)ureido]indan-5-ylsulfanyl}propionic acid] | 0.37 |  |  |
| CCCCCN(C(=O)Nc1ccc(N(C)C)cc1)C1Cc2ccc(SC(C)(C)C(=O)O)cc2C1 (centres unmarked) [Example 9, 2-{2-[3-(4-Dimethylaminophenyl)-1-pentylureido]indan-5-ylsulfanyl}-2-methylpropionic acid] | 2.9 | 1.0 |  |
| CCCCCN(C(=O)Nc1ccc(SC(F)(F)F)cc1)C1Cc2ccc(SC(C)(C)C(=O)O)cc2C1 (centres unmarked) [Example 5, 2-Methyl-2-{2-[1-pentyl-3-(4-trifluoromethylsulfanylphenyl)ureido]indan-5-ylsulfanyl}propionic acid] | 4.0 | 2.5 |  |
| CCCCCN(C(=O)Nc1ccc(C(C)C)cc1)C1Cc2ccc(SC(C)(C)C(=O)O)cc2C1 (centres unmarked) [Example 10, 2-{2-[3-(4-Isopropylphenyl)-1-(pentyl)ureido]indan-5-ylsulfanyl}-2-methylpropionic acid] | 5.1 |  | 165 |
| CCN(C(=O)Nc1ccc(SC(F)(F)F)cc1)C1Cc2ccc(SC(C)(C)C(=O)O)cc2C1 (centres unmarked) [Example 4, 2-{2-[1-Ethyl-3-(4-trifluoromethylsulfanylphenyl)ureido]indan-5-ylsulfanyl}-2-methylpropionic acid] | 3.7 |  |  |
| CCN(C(=O)Nc1ccc(N(C)C)cc1)C1Cc2ccc(SC(C)(C)C(=O)O)cc2C1 (centres unmarked) [Example 7, 2-{2-[3-(4-Dimethylaminophenyl)-1-ethylureido]indan-5-ylsulfanyl}-2-methylpropionic acid] | 0 | 0.8 |  |
| CCCCCCN(C(=O)Nc1ccc(C(C)C)cc1)C1Cc2ccc(SC(C)(C)C(=O)O)cc2C1 (centres unmarked) [Example 13, 2-{2-[3-(4-Isopropylphenyl)-1-hexylureido]indan-5-ylsulfanyl}-2-methylpropionic acid] | 1.2 |  |  |
| CC(C)(Sc1ccc2c(c1)CC(NC(=O)Nc1ccc(OC(F)(F)F)cc1)C2)C(=O)O (centres unmarked) [Example 18, 2-Methyl-2-{2-[3-(4-trifluoromethoxyphenyl)ureido]indan-5-ylsulfanyl}propionic acid] | 0.31 |  |  |
| CCCCCN(C(=O)Nc1ccc(C(C)(C)C)cc1)C1Cc2ccc(SC(C)(C)C(=O)O)cc2C1 (centres unmarked) [Example 11, 2-{2-[3-(4-tert-butylphenyl)-1-(pentyl)ureido]indan-5-ylsulfanyl}-2-methylpropionic acid] | 6.1 |  | 173 |
| CCCCCN(C(=O)Nc1ccc(OC(F)(F)F)cc1)C1Cc2ccc(SC(C)(C)C(=O)O)cc2C1 (centres unmarked) [Example 8, 2-Methyl-2-{2-[1-pentyl-3-(4-trifluoromethoxyphenyl)ureido]indan-5-ylsulfanyl}-2-methylpropionic acid] | 1.9 | 5.9 |  |
| CCN(C(=O)Nc1ccc(OC(F)(F)F)cc1)C1Cc2ccc(SC(C)(C)C(=O)O)cc2C1 (centres unmarked) [Example 2, 2-{2-[1-Ethyl-3-(4-trifluoromethoxyphenyl)ureido]indan-5-ylsulfanyl}-2-methylpropionic acid] | 0.24 | 4.2 |  |
| CCCCCN(C(=O)Nc1ccc(-c2ccccc2)cc1)C1Cc2ccc(SC(C)(C)C(=O)O)cc2C1 (centres unmarked) [Example 12, 2-[2-(3-Biphenyl-4-yl-1-pentylureido)indan-5-ylsulfanyl]-2-methylpropionic acid] | 11 |  |  |
| CCCCCCN(C(=O)Nc1ccc(OC(F)(F)F)cc1)C1Cc2ccc(SC(C)(C)C(=O)O)cc2C1 (centres unmarked) [Example 14, 2-Methyl-2-{2-[1-hexyl-3-(4-trifluoromethoxyphenyl)ureido]indan-5-ylsulfanyl}propionic acid] | 0.3 | 1.3 |  |
| CC(C)CCN(C(=O)Nc1ccc(OC(F)(F)F)cc1)C1Cc2ccc(SC(C)(C)C(=O)O)cc2C1 (centres unmarked) [Example 20, 2-Methyl-2-{2-[1-(3-methylbutyl)-3-(4-trifluoromethoxyphenyl)ureido]indan-5-ylsulfanyl}-2-methylpropionic acid] | 0.44 |  |  |
| CC(C)CCN(C(=O)Nc1ccc(C(C)C)cc1)C1Cc2ccc(SC(C)(C)C(=O)O)cc2C1 (centres unmarked) [Example 21, 2-{2-[3-(4-Isopropylphenyl)-1-(3-methylbutyl)ureido]indan-5-ylsulfanyl}-2-methylpropionic acid] | 0.05 |  |  |
| CCCCN(C(=O)Nc1ccc(SC(F)(F)F)cc1)C1Cc2ccc(SC(C)(C)C(=O)O)cc2C1 (centres unmarked) [Example 17, 2-Methyl-2-{2-[1-butyl-3-(4-trifluoromethylsulfanylphenyl)ureido]indan-5-ylsulfanyl}propionic acid] | 0.43 |  |  |
